Results taken from patent US8232406B2, “c-MET protein kinase inhibitors” (Vertex Pharmaceuticals Incorporated, priority 2006, dated 2012).

biological target: c-MET (Homo sapiens, UniProt P08581); assay: Ki determination for the inhibition of c-MET (standard radiometric 33P-ATP kinase assay, polyE4Y substrate); format: biochemical; conditions: 1.0 nM c-Met, 35 μM ATP, 0.5 mg/mL polyE4Y, 20 min; competitive tight-binding fit
Method in brief: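 Ki obtained by fitting data to competitive tight-binding inhibition kinetics. c-Met at 1.0 nM phosphorylated polyE4Y (0.5 mg/mL) with 35 μM 33P-ATP for 20 min in pH 7.5 HEPES buffer with MgCl2, NaCl, BSA and DTT. Incorporated label measured by scintillation after TCA precipitation on filters.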

Chain of c-MET (P08581 25-1390): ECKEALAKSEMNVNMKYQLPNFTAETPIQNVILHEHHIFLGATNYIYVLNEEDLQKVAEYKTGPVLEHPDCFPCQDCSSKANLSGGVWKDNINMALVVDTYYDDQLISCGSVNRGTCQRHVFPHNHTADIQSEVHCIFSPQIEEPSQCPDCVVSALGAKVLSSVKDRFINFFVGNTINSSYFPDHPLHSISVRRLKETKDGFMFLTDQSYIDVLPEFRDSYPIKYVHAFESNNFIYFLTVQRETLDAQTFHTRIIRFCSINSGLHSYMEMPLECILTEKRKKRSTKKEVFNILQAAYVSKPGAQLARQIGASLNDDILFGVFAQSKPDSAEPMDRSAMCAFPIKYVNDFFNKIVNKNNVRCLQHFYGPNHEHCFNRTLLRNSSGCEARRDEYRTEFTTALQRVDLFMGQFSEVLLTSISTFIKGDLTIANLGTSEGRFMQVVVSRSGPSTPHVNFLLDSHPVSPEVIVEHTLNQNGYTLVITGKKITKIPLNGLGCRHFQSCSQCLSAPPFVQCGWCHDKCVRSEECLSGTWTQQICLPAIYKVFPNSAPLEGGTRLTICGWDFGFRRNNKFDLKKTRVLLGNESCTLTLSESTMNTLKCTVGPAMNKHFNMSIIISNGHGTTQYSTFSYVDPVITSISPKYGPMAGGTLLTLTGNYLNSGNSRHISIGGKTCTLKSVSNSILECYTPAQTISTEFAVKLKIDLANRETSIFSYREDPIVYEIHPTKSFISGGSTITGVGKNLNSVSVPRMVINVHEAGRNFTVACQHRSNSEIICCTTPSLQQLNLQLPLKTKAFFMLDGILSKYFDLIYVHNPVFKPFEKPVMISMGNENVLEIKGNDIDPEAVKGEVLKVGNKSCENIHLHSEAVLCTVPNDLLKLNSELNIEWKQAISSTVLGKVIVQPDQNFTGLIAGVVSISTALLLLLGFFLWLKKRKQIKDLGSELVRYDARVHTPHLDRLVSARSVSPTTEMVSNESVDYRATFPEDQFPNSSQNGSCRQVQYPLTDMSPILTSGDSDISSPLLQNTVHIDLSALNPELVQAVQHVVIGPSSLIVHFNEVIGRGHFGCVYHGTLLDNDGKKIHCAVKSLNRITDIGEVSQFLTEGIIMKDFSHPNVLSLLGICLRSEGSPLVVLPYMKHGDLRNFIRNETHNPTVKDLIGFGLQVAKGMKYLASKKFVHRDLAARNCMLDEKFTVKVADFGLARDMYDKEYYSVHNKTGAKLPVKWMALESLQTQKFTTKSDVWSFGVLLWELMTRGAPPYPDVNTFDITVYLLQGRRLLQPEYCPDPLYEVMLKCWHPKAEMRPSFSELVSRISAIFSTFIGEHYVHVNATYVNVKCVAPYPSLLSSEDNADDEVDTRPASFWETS

| SMILES | Ki [nM] |
| --- | --- |
| Nc1ncc(-c2cnn(CC3CCNCC3)c2)cc1-c1nnnn1-c1cccc(F)c1F [I-A-502] | ≤ 100 |
| Nc1ncc(-c2cnn(C3CCCCC3)c2)cc1-c1nnnn1-c1cccc(F)c1F [I-A-403] | ≤ 100 |
| Nc1ncc(C2=CCN(C(=O)C3CCOC3)CC2)cc1-c1nnnn1-c1cccc(F)c1F (stereo not shown) [I-A-422] | ≤ 100 |
| CCOc1cccc(-c2cnc(N)c(-c3nncn3-c3cccc(F)c3F)n2)c1 [I-A-31] | 100 to 1000 |
| Nc1ncc(-c2cccc3c2OCO3)cc1-c1nnnn1-c1cccc(F)c1F [I-A-305] | ≤ 100 |
| Nc1ncc(-c2ccc(-n3ccnc3)nc2)cc1-c1nnnn1-c1cccc(F)c1F [I-A-128] | ≤ 100 |
| CN1CCN(c2ccc(-c3cnc(N)c(-c4nnsc4-c4cccc(Cl)c4Cl)c3)cc2)CC1 [I-C-3] | ≤ 100 |
| Nc1ncc(-c2cnn(C3CNC3)c2)cc1-c1nnnn1-c1cccc(Cl)c1Cl [I-A-427] | ≤ 100 |
| CC1CN(Cc2ccc(-c3cnc(N)c(-c4nnnn4-c4cccc(Cl)c4Cl)c3)cc2)CC(C)O1 (stereo not shown) [I-A-103] | 100 to 1000 |
| CC(=O)c1ccc(-c2cnc(N)c(-c3nnnn3-c3cccc(F)c3F)c2)s1 [I-A-179] | 100 to 1000 |
| N#Cc1cccc(-c2cnc(N)c(-c3nnnn3-c3cccc(F)c3F)c2)c1 [I-A-228] | 100 to 1000 |
| Nc1ncc(-c2ccn(CCN3CCCC3)c2)cc1-c1nnnn1-c1cccc(F)c1F [I-A-466] | ≤ 100 |
| NCc1cccc(-c2cnc(N)c(-c3nnnn3-c3cccc(Cl)c3Cl)c2)c1 [I-A-87] | ≤ 100 |
| Nc1ncc(-c2ccc(C(=O)NC3CC3)cc2)cc1-c1nnnn1-c1cccc(F)c1F [I-A-137] | ≤ 100 |
| Nc1ncc(-c2cccnc2)cc1-c1nnnn1-c1c(F)cccc1F [I-A-608] | 100 to 1000 |
| Nc1ncc(-c2ccc(N3CC(CO)OC3=O)cc2)cc1-c1nnnn1-c1cccc(F)c1F (stereo not shown) [I-A-372] | ≤ 100 |
| Nc1ncc(-c2ccoc2)cc1-c1nnnn1-c1cccc(F)c1F [I-A-497] | ≤ 100 |
| Nc1ncc(C2=CCN(C(=O)c3ccncc3)CC2)cc1-c1nnnn1-c1cccc(F)c1F [I-A-518] | ≤ 100 |
| Nc1ncc(-c2cnn(Cc3ccccc3)c2)cc1-c1nnnn1-c1cccc(F)c1F [I-A-349] | ≤ 100 |
| CC(=O)c1cccc(-c2cnc(N)c(-c3nnnn3-c3cccc(F)c3F)c2)c1 [I-A-218] | ≤ 100 |
| COc1cccc(-c2cnc(N)c(-c3nnnn3-c3cccc(F)c3F)c2)c1 [I-A-221] | ≤ 100 |

| SMILES | Ki [nM] |
| --- | --- |
| Cc1ccccc1-c1cnc(N)c(-c2nnnn2-c2cccc(F)c2F)c1 [I-A-241] | 100 to 1000 |
| Nc1ncc(C2=CCN(C3CCNCC3)CC2)cc1-c1nnnn1-c1cccc(F)c1F [I-A-424] | 100 to 1000 |
| Nc1ncc(-c2cccc(N3CCNCC3)c2)cc1-c1nnnn1-c1cccc(F)c1F [I-A-414] | ≤ 100 |
| NCc1ccc(-c2cnc(N)c(-c3nnnn3-c3cccc(F)c3F)c2)cc1 [I-A-202] | ≤ 100 |
| CC(=O)Nc1ccc(-c2cnc(N)c(-c3nnnn3-c3cc(Cl)cc(Cl)c3)c2)cc1 [I-A-587] | 100 to 1000 |
| CN(C)Cc1ccc(-c2cnc(N)c(-c3nnnn3-c3cccc(F)c3F)c2)cc1F [I-A-165] | ≤ 100 |
| CC(=O)Nc1ccc(-c2cnc(N)c(-c3nnnn3-c3cc(F)ccc3F)c2)cc1 [I-A-581] | 100 to 1000 |
| COC(=O)C(C)NC(=O)Nc1ccc(-c2cnc(N)c(-c3nnnn3-c3cccc(F)c3F)c2)cc1 (stereo not shown) [I-A-331] | ≤ 100 |
| N#Cc1ccc(-c2cnc(N)c(-c3nnnn3-c3cccc(F)c3F)c2)cc1 [I-A-229] | 100 to 1000 |
| CN1CCN(c2ccc(-c3cnc(N)c(-c4nnc(O)n4-c4cccc(F)c4F)n3)cc2)CC1 [I-A-17] | 100 to 1000 |
| Nc1ncc(-c2ccc(CO)cc2)cc1-c1nncn1-c1cccc(Cl)c1Cl [I-A-78] | 100 to 1000 |
| Nc1ncc(C2=CCN(C(=O)[C@H]3CCC(=O)N3)CC2)cc1-c1nnnn1-c1cccc(F)c1F [I-A-657] | ≤ 100 |
| CCN1CCC[C@@H](n2cc(-c3cnc(N)c(-c4nnnn4-c4cccc(Cl)c4Cl)c3)cn2)C1 [I-A-499] | ≤ 100 |
| Nc1ncc(-c2cnn(CCO)c2)cc1-c1nc2cnccc2n1-c1cccc(F)c1F [I-D-8] | ≤ 100 |
| CN1CCOc2cc(-c3cnc(N)c(-c4nnnn4-c4cccc(F)c4F)c3)ccc21 [I-A-289] | 100 to 1000 |
| CN1CCN(c2ccc(-c3cnc(N)c(-c4nc5cc(F)ccc5n4-c4cccc(Cl)c4F)c3)cc2)CC1 [I-D-21] | 100 to 1000 |
| Nc1ncc(-c2ccc(N3CCNCC3)cc2)cc1-c1nc2cccnc2n1-c1cccc(Cl)c1F [I-D-16] | 100 to 1000 |
| Nc1ncc(-c2cnn(C3CCN(CC(F)F)CC3)c2)cc1-c1nncn1-c1cccc(Cl)c1F [I-A-460] | ≤ 100 |
| Nc1ncc(-c2cccnc2)cc1-c1nc2cnccc2n1-c1cccc(F)c1F [I-D-1] | ≤ 100 |
| Nc1ncc(-c2ccc(CN3CCCC3)cc2)cc1-c1nnnn1-c1cccc(F)c1Cl [I-A-386] | 100 to 1000 |
| Nc1ncc(-c2cnn(C3CCNCC3)c2)cc1-c1nnnn1-c1c(F)ccc(F)c1Cl [I-A-640] | ≤ 100 |

| SMILES | Ki [nM] |
| --- | --- |
| Nc1ncc(-c2ccc(C(N)C(=O)O)cc2)cc1-c1nnnn1-c1cccc(F)c1F (stereo not shown) [I-A-205] | 100 to 1000 |
| Nc1ncc(-c2ccc(CN3CC[C@H](O)C3)cc2)cc1-c1nnnn1-c1cccc(F)c1F [I-A-131] | ≤ 100 |
| Nc1ncc(-c2cc(F)c(N)c(F)c2)cc1-c1nnnn1-c1cccc(F)c1F [I-A-303] | ≤ 100 |
| CN(C)CCNC(=O)c1ccc(-c2cnc(N)c(-c3nnnn3-c3cccc(F)c3F)c2)cc1 [I-A-135] | ≤ 100 |
| Nc1ncc(-c2cc(O)c(F)c(F)c2)cc1-c1nnnn1-c1cccc(F)c1F [I-A-291] | 100 to 1000 |
| Nc1ncc(-c2cnn([C@@H]3CCNC3)c2)cc1-c1nnnn1-c1cccc(Cl)c1F [I-A-538] | ≤ 100 |
| CN(C)Cc1ccc(-c2cnc(N)c(-c3nnnn3-c3c(Cl)cccc3Cl)c2)cc1 [I-A-629] | ≤ 100 |
| Nc1ncc(-c2ccc(C3CCOC(=O)N3)cc2)cc1-c1nnnn1-c1cccc(F)c1F (stereo not shown) [I-A-325] | ≤ 100 |
| Nc1ncc(-c2ccc(NC(=O)Nc3cccs3)cc2)cc1-c1nnnn1-c1cccc(F)c1F [I-A-282] | 100 to 1000 |
| CC(C)(O)Cn1cc(-c2cnc(N)c(-c3nnnn3-c3cccc(F)c3F)c2)cn1 [I-A-348] | ≤ 100 |
| CCCN1CCC(n2cc(-c3cnc(N)c(-c4nnnn4-c4cccc(Cl)c4F)c3)cn2)CC1 [I-A-470] | ≤ 100 |
| Nc1ncc(-c2cnn(C3CCNCC3)c2)cc1-c1nnnn1-c1c(F)cccc1F [I-A-628] | ≤ 100 |
| Nc1ncc(-c2ccc(CN3CCCC3)cc2)cc1-n1nnnc1-c1cccc(F)c1F [I-E-4] | 100 to 1000 |
| Cc1c(Cl)cccc1-n1nnnc1-c1cc(-c2ccc(CN3CCCC3)cc2)cnc1N [I-A-599] | ≤ 100 |
| Nc1ncc(-c2cnn(C3CCNCC3)c2)cc1-c1nnnn1-c1cc(Cl)ccc1Cl [I-A-636] | 100 to 1000 |
| CN1CCN(c2ccc(-c3cnc(N)c(-c4nncn4-c4cccc(F)c4F)c3)cc2)CC1 [I-A-41] | 100 to 1000 |
| CC1CCC(C)N1Cc1ccc(-c2cnc(N)c(-c3nnnn3-c3cccc(F)c3F)c2)cc1 (stereo not shown) [I-A-210] | ≤ 100 |
| Nc1ncc(-c2cscn2)nc1-c1nnnn1-c1ccccc1F [I-A-541] | 100 to 1000 |
| Nc1ncc(-c2cnn([C@H]3CCCNC3)c2)nc1-c1nnnn1-c1cccc(F)c1F [I-A-655] | ≤ 100 |
| Nc1ncc(-c2ccc3c(c2)C(=O)C(=O)N3)cc1-c1nnnn1-c1cccc(F)c1F [I-A-204] | ≤ 100 |
| C[C@@H]1CC[C@@H](C)N1Cc1ccc(-c2cnc(N)c(-c3nnnn3-c3cccc(F)c3F)c2)cc1 [I-A-267] | ≤ 100 |

| SMILES | Ki [nM] |
| --- | --- |
| COc1ccc(F)cc1-n1nnnc1-c1cc(-c2cnn(C3CCNCC3)c2)cnc1N [I-A-633] | 100 to 1000 |
| Nc1ncc(-c2ccccc2F)cc1-c1nnnn1-c1cccc(F)c1F [I-A-313] | ≤ 100 |
| Nc1ncc(-c2cnn(C3CCN(C4CCC4)CC3)c2)cc1-c1nnnn1-c1cccc(F)c1F [I-A-451] | ≤ 100 |
| Nc1ncc(-c2ccc(CN3CCC(O)CC3)cc2)cc1-c1nnnn1-c1cccc(Cl)c1Cl [I-A-97] | ≤ 100 |
| CCN(C)Cc1ccc(-c2cnc(N)c(-c3nnnn3-c3cccc(F)c3F)c2)cc1 [I-A-149] | ≤ 100 |
| COC(=O)C(C)(C)c1ccc(-c2cnc(N)c(-c3nnnn3-c3cccc(F)c3F)c2)cc1 [I-A-207] | ≤ 100 |
| Nc1ncc(-c2ccc(CN3CCC[C@H]3CO)cc2)cc1-c1nnnn1-c1cccc(Cl)c1Cl [I-A-122] | ≤ 100 |
| CCNC(=O)Nc1nc2cc(OC)c(-c3cnc(N)c(-c4nnnn4-c4cccc(F)c4F)n3)cc2[nH]1 [I-A-55] | 100 to 1000 |
| CC(=O)Nc1cccc(-c2cnc(N)c(-c3nnnn3-c3c(Cl)cccc3Cl)c2)c1 [I-A-611] | 100 to 1000 |
| Nc1ncc(-c2nc3c(s2)CNCC3)cc1-c1nnnn1-c1cccc(F)c1F [I-A-465] | 100 to 1000 |
| CC(C)N1CCC(n2cc(-c3cnc(N)c(-c4nncn4-c4cccc(Cl)c4F)c3)cn2)CC1 [I-A-471] | ≤ 100 |
| COc1cc(-c2cnc(N)c(-c3nnnn3-c3cccc(F)c3F)c2)ccc1O [I-A-299] | ≤ 100 |
| Nc1ncc(-c2cccnc2)cc1-c1ncsc1-c1cccc(Cl)c1Cl [I-C-8, 3-(5-(2,3-Dichlorophenyl)thiazol-4-yl)-5-(pyridin-3-yl)pyridin-2-amine] | 100 to 1000 |
| Nc1ncc(-c2cnn(C3CCN(CCF)CC3)c2)cc1-c1nncn1-c1cccc(Cl)c1F [I-A-459] | ≤ 100 |
| Nc1ncc(C2=CCN(C(=O)C3CCCNC3)CC2)cc1-c1nnnn1-c1cccc(F)c1F (stereo not shown) [I-A-423] | ≤ 100 |
| Cc1ccc(Cl)cc1-n1nnnc1-c1cc(-c2ccc(CN3CCCC3)cc2)cnc1N [I-A-600] | 100 to 1000 |
| CC1(C)CC(C(=O)N2CC=C(c3cnc(N)c(-c4nnnn4-c4cccc(F)c4F)c3)CC2)CCO1 (stereo not shown) [I-A-515] | ≤ 100 |
| CN1CCN(c2ccc(-c3cnc(N)c(-c4nn(C)cc4-c4cccc(Cl)c4Cl)c3)cc2)CC1 [I-B-21] | 100 to 1000 |
| Nc1ncc(-c2ccc(CN3CCOCC3)cc2)nc1-c1nncn1-c1cccc(F)c1F [I-A-5] | ≤ 100 |
